According to PubChem BioAssay (NCI):
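Interpolation was linear, between the two tested concentrations surrounding the appropriate level; five concentrations were tested over 48 hours in 96-well plates. GI50 is the concentration that inhibits growth by half. At the TGI there is no net growth.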

Key:
Assay in all cases: inhibition of tumour cell growth, NCI panel, 48 h
SF-539 CNS = system: SF-539 CNS
ACHN renal = system: ACHN renal
786-0 renal = system: 786-0 renal
SK-MEL-2 melanoma = system: SK-MEL-2 melanoma
HL-60(TB) leukemia = system: HL-60(TB) leukemia
HS 578T breast = system: HS 578T breast
K-562 leukemia = system: K-562 leukemia
A498 renal = system: A498 renal
TK-10 renal = system: TK-10 renal
MALME-3M melanoma = system: MALME-3M melanoma
SW-620 colon = system: SW-620 colon
PC-3 prostate = system: PC-3 prostate
RPMI-8226 leukemia = system: RPMI-8226 leukemia
MDA-MB-435 = system: MDA-MB-435
HCT-15 colon = system: HCT-15 colon
SK-MEL-5 melanoma = system: SK-MEL-5 melanoma
A549 NSCLC = system: A549 NSCLC
BT-549 breast = system: BT-549 breast
RXF 393 renal = system: RXF 393 renal
OVCAR-4 ovarian = system: OVCAR-4 ovarian
SF-268 CNS = system: SF-268 CNS
SK-MEL-28 melanoma = system: SK-MEL-28 melanoma
MOLT-4 leukemia = system: MOLT-4 leukemia
CAKI-1 renal = system: CAKI-1 renal
HOP-62 NSCLC = system: HOP-62 NSCLC
NCI-H23 lung = system: NCI-H23 lung
MDA-MB-231 breast = system: MDA-MB-231 breast
NCI-H522 lung = system: NCI-H522 lung
KM12 colon = system: KM12 colon
MCF7 breast = system: MCF7 breast
U251 CNS = system: U251 CNS
SF-295 CNS = system: SF-295 CNS
HCC-2998 colon = system: HCC-2998 colon
EKVX NSCLC = system: EKVX NSCLC
NCI/ADR-RES ovarian = system: NCI/ADR-RES ovarian
HOP-92 NSCLC = system: HOP-92 NSCLC
SNB-75 CNS = system: SNB-75 CNS
M14 melanoma = system: M14 melanoma
OVCAR-5 ovarian = system: OVCAR-5 ovarian
HCT-116 colon = system: HCT-116 colon
DU-145 prostate = system: DU-145 prostate
T-47D breast = system: T-47D breast
OVCAR-8 ovarian = system: OVCAR-8 ovarian
SN12C renal = system: SN12C renal
IGROV1 ovarian = system: IGROV1 ovarian
SNB-19 CNS = system: SNB-19 CNS
HT29 colon = system: HT29 colon
MDA-MB-468 breast = system: MDA-MB-468 breast
LOX IMVI melanoma = system: LOX IMVI melanoma
CCRF-CEM leukemia = system: CCRF-CEM leukemia
UACC-62 melanoma = system: UACC-62 melanoma
UACC-257 melanoma = system: UACC-257 melanoma
OVCAR-3 ovarian = system: OVCAR-3 ovarian
NCI-H226 lung = system: NCI-H226 lung

Question: Which GI50 (SF-539 CNS) does the source give for `Cc1ccc2c(c1)nc(-c1ccccc1)n2CC(=O)N=Nc1c(O)[nH]c2ccc(Br)cc12` here?
Answer: 1630 nM

Question: What about the TGI (SF-539 CNS) of the same compound?
Answer: 3020 nM

Question: And the GI50 (ACHN renal)?
Answer: 1590 nM

Question: What about the TGI (ACHN renal) of the same compound?
Answer: 2940 nM

Question: And the GI50 (786-0 renal)?
Answer: 1730 nM

Question: What about the TGI (786-0 renal) of the same compound?
Answer: 3160 nM

Question: What about the GI50 (SK-MEL-2 melanoma) of the same compound?
Answer: 1810 nM

Question: And the TGI (SK-MEL-2 melanoma)?
Answer: 3640 nM

Question: And the GI50 (HL-60(TB) leukemia)?
Answer: 3160 nM

Question: And the TGI (HL-60(TB) leukemia)?
Answer: > 100000 nM

Question: What about the GI50 (HS 578T breast) of the same compound?
Answer: 1860 nM

Question: And the TGI (HS 578T breast)?
Answer: 5620 nM

Question: And the GI50 (K-562 leukemia)?
Answer: 3150 nM

Question: And the TGI (K-562 leukemia)?
Answer: > 100000 nM

Question: What about the GI50 (A498 renal) of the same compound?
Answer: 2000 nM

Question: And the TGI (A498 renal)?
Answer: 3990 nM

Question: And the GI50 (TK-10 renal)?
Answer: 3120 nM

Question: What about the TGI (TK-10 renal) of the same compound?
Answer: 7140 nM

Question: And the GI50 (MALME-3M melanoma)?
Answer: 1630 nM

Question: What about the TGI (MALME-3M melanoma) of the same compound?
Answer: 3100 nM

Question: And the GI50 (SW-620 colon)?
Answer: 2200 nM

Question: And the TGI (SW-620 colon)?
Answer: 5470 nM

Question: And the GI50 (PC-3 prostate)?
Answer: 1560 nM

Question: And the TGI (PC-3 prostate)?
Answer: 3160 nM

Question: What about the GI50 (RPMI-8226 leukemia) of the same compound?
Answer: 2180 nM

Question: What about the TGI (RPMI-8226 leukemia) of the same compound?
Answer: 5460 nM

Question: And the GI50 (MDA-MB-435)?
Answer: 1680 nM

Question: What about the TGI (MDA-MB-435) of the same compound?
Answer: 3770 nM

Question: And the GI50 (HCT-15 colon)?
Answer: 1690 nM

Question: And the TGI (HCT-15 colon)?
Answer: 3180 nM

Question: And the GI50 (SK-MEL-5 melanoma)?
Answer: 1740 nM

Question: What about the TGI (SK-MEL-5 melanoma) of the same compound?
Answer: 3580 nM

Question: And the GI50 (A549 NSCLC)?
Answer: 1900 nM

Question: And the TGI (A549 NSCLC)?
Answer: 4030 nM

Question: What about the GI50 (BT-549 breast) of the same compound?
Answer: 1850 nM

Question: And the TGI (BT-549 breast)?
Answer: 3530 nM

Question: What about the GI50 (RXF 393 renal) of the same compound?
Answer: 773 nM

Question: And the TGI (RXF 393 renal)?
Answer: 2220 nM

Question: What about the GI50 (OVCAR-4 ovarian) of the same compound?
Answer: 1830 nM

Question: What about the TGI (OVCAR-4 ovarian) of the same compound?
Answer: 3810 nM

Question: What about the GI50 (SF-268 CNS) of the same compound?
Answer: 2440 nM

Question: What about the TGI (SF-268 CNS) of the same compound?
Answer: 8560 nM

Question: And the GI50 (SK-MEL-28 melanoma)?
Answer: 1650 nM

Question: What about the TGI (SK-MEL-28 melanoma) of the same compound?
Answer: 3060 nM

Question: And the GI50 (MOLT-4 leukemia)?
Answer: 2220 nM

Question: What about the TGI (MOLT-4 leukemia) of the same compound?
Answer: 5620 nM

Question: And the GI50 (CAKI-1 renal)?
Answer: 1540 nM

Question: And the TGI (CAKI-1 renal)?
Answer: 3620 nM

Question: What about the GI50 (HOP-62 NSCLC) of the same compound?
Answer: 1750 nM

Question: And the TGI (HOP-62 NSCLC)?
Answer: 3390 nM

Question: What about the GI50 (NCI-H23 lung) of the same compound?
Answer: 1770 nM

Question: What about the TGI (NCI-H23 lung) of the same compound?
Answer: 3360 nM

Question: And the GI50 (MDA-MB-231 breast)?
Answer: 1890 nM

Question: And the TGI (MDA-MB-231 breast)?
Answer: 4250 nM

Question: And the GI50 (NCI-H522 lung)?
Answer: 1870 nM

Question: And the TGI (NCI-H522 lung)?
Answer: 4100 nM

Question: And the GI50 (KM12 colon)?
Answer: 2060 nM

Question: And the TGI (KM12 colon)?
Answer: 4890 nM

Question: What about the GI50 (MCF7 breast) of the same compound?
Answer: 1540 nM

Question: And the TGI (MCF7 breast)?
Answer: 3160 nM

Question: And the GI50 (U251 CNS)?
Answer: 1760 nM

Question: And the TGI (U251 CNS)?
Answer: 3430 nM

Question: And the GI50 (SF-295 CNS)?
Answer: 1540 nM

Question: And the TGI (SF-295 CNS)?
Answer: 2930 nM

Question: And the GI50 (HCC-2998 colon)?
Answer: 1850 nM

Question: What about the TGI (HCC-2998 colon) of the same compound?
Answer: 3440 nM

Question: What about the GI50 (EKVX NSCLC) of the same compound?
Answer: 1380 nM

Question: What about the TGI (EKVX NSCLC) of the same compound?
Answer: 2920 nM

Question: What about the GI50 (NCI/ADR-RES ovarian) of the same compound?
Answer: 1700 nM

Question: What about the TGI (NCI/ADR-RES ovarian) of the same compound?
Answer: 3270 nM

Question: And the GI50 (HOP-92 NSCLC)?
Answer: 1220 nM

Question: What about the TGI (HOP-92 NSCLC) of the same compound?
Answer: 2640 nM

Question: And the GI50 (SNB-75 CNS)?
Answer: 1100 nM

Question: What about the TGI (SNB-75 CNS) of the same compound?
Answer: 3060 nM

Question: What about the GI50 (M14 melanoma) of the same compound?
Answer: 1690 nM

Question: And the TGI (M14 melanoma)?
Answer: 3350 nM

Question: And the GI50 (OVCAR-5 ovarian)?
Answer: 1830 nM

Question: What about the TGI (OVCAR-5 ovarian) of the same compound?
Answer: 4280 nM

Question: And the GI50 (HCT-116 colon)?
Answer: 1740 nM

Question: And the TGI (HCT-116 colon)?
Answer: 3340 nM

Question: And the GI50 (DU-145 prostate)?
Answer: 2290 nM

Question: What about the TGI (DU-145 prostate) of the same compound?
Answer: 4850 nM

Question: And the GI50 (T-47D breast)?
Answer: 1820 nM

Question: And the TGI (T-47D breast)?
Answer: 4400 nM

Question: And the GI50 (OVCAR-8 ovarian)?
Answer: 1890 nM

Question: What about the TGI (OVCAR-8 ovarian) of the same compound?
Answer: 3800 nM

Question: What about the GI50 (SN12C renal) of the same compound?
Answer: 1780 nM

Question: What about the TGI (SN12C renal) of the same compound?
Answer: 4160 nM

Question: And the GI50 (IGROV1 ovarian)?
Answer: 1710 nM

Question: And the TGI (IGROV1 ovarian)?
Answer: 3290 nM

Question: What about the GI50 (SNB-19 CNS) of the same compound?
Answer: 1950 nM

Question: And the TGI (SNB-19 CNS)?
Answer: 4280 nM

Question: And the GI50 (HT29 colon)?
Answer: 1780 nM

Question: And the TGI (HT29 colon)?
Answer: 3450 nM

Question: And the GI50 (MDA-MB-468 breast)?
Answer: 1750 nM

Question: What about the TGI (MDA-MB-468 breast) of the same compound?
Answer: 3180 nM

Question: And the GI50 (LOX IMVI melanoma)?
Answer: 1550 nM

Question: And the TGI (LOX IMVI melanoma)?
Answer: 2910 nM

Question: What about the GI50 (CCRF-CEM leukemia) of the same compound?
Answer: 2090 nM

Question: What about the TGI (CCRF-CEM leukemia) of the same compound?
Answer: 4960 nM

Question: And the GI50 (UACC-62 melanoma)?
Answer: 1440 nM

Question: What about the TGI (UACC-62 melanoma) of the same compound?
Answer: 2800 nM

Question: And the GI50 (UACC-257 melanoma)?
Answer: 1730 nM

Question: And the TGI (UACC-257 melanoma)?
Answer: 3810 nM

Question: And the GI50 (OVCAR-3 ovarian)?
Answer: 1910 nM

Question: And the TGI (OVCAR-3 ovarian)?
Answer: 3450 nM

Question: And the GI50 (NCI-H226 lung)?
Answer: 1470 nM

Question: And the TGI (NCI-H226 lung)?
Answer: 2970 nM
